In patent US5079260A, “Method for treating inflammation and compounds and compositions suitable for use therein” (Nova Pharmaceutical Corporation, priority 1990, dated 1992):

Tested on: Ear Edema Caused By Tetradecanoylphorbol Acetate
Assay: Inhibition of Ear Edema Caused by Tetradecanoylphorbol Acetate (II), Table 7
Format: in vivo, CF-1 Mice
Settings: i.p., 10 mg/kg; 3 h

Row | SMILES | % Inhibition Intraperitoneal
1 | CC(C)C[C@H](NC(=O)OCCC1c2ccccc2-c2ccccc21)C(=O)O [NPC 15521, N-[(9H-Fluoren-9-ylethoxy)carbonyl]-L-leucine] | 33%
2 | CC(C)(C)[C@H](NC(=O)CCC1c2ccccc2-c2ccccc21)C(=O)O [NPC 15685, N-[3-(9H-Fluoren-9-yl)propionyl]-L-tert-leucine, quarter hydrate] | 0%
3 | CC(C)(C)C[C@H](NC(=O)OCC1c2ccccc2-c2ccccc21)C(=O)O [NPC 15676, N-[(9H-Fluoren-9-ylmethoxy)carbonyl]-L--neopentylglycine quarter hydrate] | 0%
4 | CCCC[C@H](NC(=O)OCC1c2ccccc2-c2ccccc21)C(=O)O [NPC 15667, N-[9H-(Fluorenyl-9-ylmethoxy)carbonyl]-L-norleucine] | -80%

Same assay, conditions: i.p., 30 mg/kg; 3 h

Row | SMILES | % Inhibition Intraperitoneal
5 | CC(C)C[C@H](NC(=O)OCCC1c2ccccc2-c2ccccc21)C(=O)O [NPC 15521, N-[(9H-Fluoren-9-ylethoxy)carbonyl]-L-leucine] | 37%
6 | CC(C)(C)[C@H](NC(=O)CCC1c2ccccc2-c2ccccc21)C(=O)O [NPC 15685, N-[3-(9H-Fluoren-9-yl)propionyl]-L-tert-leucine, quarter hydrate] | 16%
7 | CC(C)(C)C[C@H](NC(=O)OCC1c2ccccc2-c2ccccc21)C(=O)O [NPC 15676, N-[(9H-Fluoren-9-ylmethoxy)carbonyl]-L--neopentylglycine quarter hydrate] | 20%
8 | CCCC[C@H](NC(=O)OCC1c2ccccc2-c2ccccc21)C(=O)O [NPC 15667, N-[9H-(Fluorenyl-9-ylmethoxy)carbonyl]-L-norleucine] | 72%

Same assay, conditions: i.p., 100 mg/kg; 3 h

Row | SMILES | % Inhibition Intraperitoneal
9 | CC(C)C[C@H](NC(=O)OCCC1c2ccccc2-c2ccccc21)C(=O)O [NPC 15521, N-[(9H-Fluoren-9-ylethoxy)carbonyl]-L-leucine] | 77%
10 | CC(C)(C)[C@H](NC(=O)CCC1c2ccccc2-c2ccccc21)C(=O)O [NPC 15685, N-[3-(9H-Fluoren-9-yl)propionyl]-L-tert-leucine, quarter hydrate] | 67%
11 | CC(C)(C)C[C@H](NC(=O)OCC1c2ccccc2-c2ccccc21)C(=O)O [NPC 15676, N-[(9H-Fluoren-9-ylmethoxy)carbonyl]-L--neopentylglycine quarter hydrate] | 16%

Tested on: Ear Edema Caused by Arachidonic Acid
Assay: Inhibition of Ear Edema Caused by Arachidonic Acid (II), Table 8
Format: in vivo, CF-1 mice
Settings: i.p., 10 mg/kg; sixty minutes
Outline: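 CF-1 mice (25-30 g, six/group) dosed intraperitoneally with compound in DMSO or 0.5% methylcellulose 30 min before topical arachidonic acid (100 mg/mL in ethanol, both ear surfaces).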

Row | SMILES | % Inhibition Intraperitoneal
12 | CC(C)C[C@H](NC(=O)OCCC1c2ccccc2-c2ccccc21)C(=O)O [NPC 15521, N-[(9H-Fluoren-9-ylethoxy)carbonyl]-L-leucine] | 34%
13 | CC(C)(C)[C@H](NC(=O)CCC1c2ccccc2-c2ccccc21)C(=O)O [NPC 15685, N-[3-(9H-Fluoren-9-yl)propionyl]-L-tert-leucine, quarter hydrate] | 44%
14 | CC(C)(C)C[C@H](NC(=O)OCC1c2ccccc2-c2ccccc21)C(=O)O [NPC 15676, N-[(9H-Fluoren-9-ylmethoxy)carbonyl]-L--neopentylglycine quarter hydrate] | 20%
15 | CCCC[C@H](NC(=O)OCC1c2ccccc2-c2ccccc21)C(=O)O [NPC 15667, N-[9H-(Fluorenyl-9-ylmethoxy)carbonyl]-L-norleucine] | 7%

Same assay, conditions: i.p., 30 mg/kg; sixty minutes

Row | SMILES | % Inhibition Intraperitoneal
16 | CC(C)C[C@H](NC(=O)OCCC1c2ccccc2-c2ccccc21)C(=O)O [NPC 15521, N-[(9H-Fluoren-9-ylethoxy)carbonyl]-L-leucine] | 41%
17 | CC(C)(C)[C@H](NC(=O)CCC1c2ccccc2-c2ccccc21)C(=O)O [NPC 15685, N-[3-(9H-Fluoren-9-yl)propionyl]-L-tert-leucine, quarter hydrate] | 61%
18 | CC(C)(C)C[C@H](NC(=O)OCC1c2ccccc2-c2ccccc21)C(=O)O [NPC 15676, N-[(9H-Fluoren-9-ylmethoxy)carbonyl]-L--neopentylglycine quarter hydrate] | 44%
19 | CCCC[C@H](NC(=O)OCC1c2ccccc2-c2ccccc21)C(=O)O [NPC 15667, N-[9H-(Fluorenyl-9-ylmethoxy)carbonyl]-L-norleucine] | 57%

Same assay, conditions: i.p., 100 mg/kg; sixty minutes

Row | SMILES | % Inhibition Intraperitoneal
20 | CC(C)C[C@H](NC(=O)OCCC1c2ccccc2-c2ccccc21)C(=O)O [NPC 15521, N-[(9H-Fluoren-9-ylethoxy)carbonyl]-L-leucine] | 69%
21 | CC(C)(C)[C@H](NC(=O)CCC1c2ccccc2-c2ccccc21)C(=O)O [NPC 15685, N-[3-(9H-Fluoren-9-yl)propionyl]-L-tert-leucine, quarter hydrate] | 69%
22 | CC(C)(C)C[C@H](NC(=O)OCC1c2ccccc2-c2ccccc21)C(=O)O [NPC 15676, N-[(9H-Fluoren-9-ylmethoxy)carbonyl]-L--neopentylglycine quarter hydrate] | 79%
23 | CCCC[C@H](NC(=O)OCC1c2ccccc2-c2ccccc21)C(=O)O [NPC 15667, N-[9H-(Fluorenyl-9-ylmethoxy)carbonyl]-L-norleucine] | 65%

Tested on: Reverse Passive Artus Reaction
Assay: Reverse Passive Artus Reaction (II), Table 11
Format: in vivo, Male CD rats
Settings: inhibition of blueing; i.p., 100 mg/kg
Description: Reverse Passive Artus Reaction (II) Male CD rats weighing between 200 and 250 g were used. […] The animals were anesthetized inhalationally with isoflurane and then injected through the penile vein with 1 mL of a solution of 2.5 mg of Evan's blue dye and 5.0 mg of human serum albumin in 1 mL of saline. This treatment was followed immediately by intracutaneous injections of 0.03 mL of anti-human albumin diluted to contain 3.65 mg of antibody at 3 sites along the midline back. Anesthesia was terminated and after three hours, the animals were sacrificed. The skin was removed and the blue stained areas cut out. The skin patches were soaked overnight in stoppered tubes containing 1 mL of 1 N potassium hydroxide at 37° C. Then 9 mL of a mixture of five parts of a 0.6 N phosphoric acid and thirteen parts of acetone were added to the tubes. The tube contents were agitated and centrifuged, and the absorbance measured at 620 nm. The data were calculated as inhibition of blueing by test compound compared to control animals receiving only antigen and antibody.

Row | SMILES | % Inhibition Intraperitoneal
24 | CC(C)C[C@H](NC(=O)OCCC1c2ccccc2-c2ccccc21)C(=O)O [NPC 15521, N-[(9H-Fluoren-9-ylethoxy)carbonyl]-L-leucine] | 63%
25 | CC(C)(C)[C@H](NC(=O)CCC1c2ccccc2-c2ccccc21)C(=O)O [NPC 15685, N-[3-(9H-Fluoren-9-yl)propionyl]-L-tert-leucine, quarter hydrate] | 42%
26 | CC(C)(C)C[C@H](NC(=O)OCC1c2ccccc2-c2ccccc21)C(=O)O [NPC 15676, N-[(9H-Fluoren-9-ylmethoxy)carbonyl]-L--neopentylglycine quarter hydrate] | 82%
27 | CCCC[C@H](NC(=O)OCC1c2ccccc2-c2ccccc21)C(=O)O [NPC 15667, N-[9H-(Fluorenyl-9-ylmethoxy)carbonyl]-L-norleucine] | 63%

Tested on: Ear Edema Caused by Oxazolone
Assay: Inhibition of Ear Edema Caused by Oxazolone (II), Table 10
Format: in vivo, CF-1 mice
Settings: i.p., 10 mg/kg; 24 h

Row | SMILES | % Inhibition Intraperitoneal
28 | CC(C)C[C@H](NC(=O)OCCC1c2ccccc2-c2ccccc21)C(=O)O [NPC 15521, N-[(9H-Fluoren-9-ylethoxy)carbonyl]-L-leucine] | 39%
29 | CC(C)(C)[C@H](NC(=O)CCC1c2ccccc2-c2ccccc21)C(=O)O [NPC 15685, N-[3-(9H-Fluoren-9-yl)propionyl]-L-tert-leucine, quarter hydrate] | 0%
30 | CC(C)(C)C[C@H](NC(=O)OCC1c2ccccc2-c2ccccc21)C(=O)O [NPC 15676, N-[(9H-Fluoren-9-ylmethoxy)carbonyl]-L--neopentylglycine quarter hydrate] | 0%
31 | CCCC[C@H](NC(=O)OCC1c2ccccc2-c2ccccc21)C(=O)O [NPC 15667, N-[9H-(Fluorenyl-9-ylmethoxy)carbonyl]-L-norleucine] | 13%

Same assay, conditions: i.p., 30 mg/kg; 24 h

Row | SMILES | % Inhibition Intraperitoneal
32 | CC(C)C[C@H](NC(=O)OCCC1c2ccccc2-c2ccccc21)C(=O)O [NPC 15521, N-[(9H-Fluoren-9-ylethoxy)carbonyl]-L-leucine] | 45%
33 | CC(C)(C)[C@H](NC(=O)CCC1c2ccccc2-c2ccccc21)C(=O)O [NPC 15685, N-[3-(9H-Fluoren-9-yl)propionyl]-L-tert-leucine, quarter hydrate] | 30%
34 | CC(C)(C)C[C@H](NC(=O)OCC1c2ccccc2-c2ccccc21)C(=O)O [NPC 15676, N-[(9H-Fluoren-9-ylmethoxy)carbonyl]-L--neopentylglycine quarter hydrate] | 4%
35 | CCCC[C@H](NC(=O)OCC1c2ccccc2-c2ccccc21)C(=O)O [NPC 15667, N-[9H-(Fluorenyl-9-ylmethoxy)carbonyl]-L-norleucine] | 15%

Same assay, conditions: i.p., 100 mg/kg; 24 h

Row | SMILES | % Inhibition Intraperitoneal
36 | CC(C)C[C@H](NC(=O)OCCC1c2ccccc2-c2ccccc21)C(=O)O [NPC 15521, N-[(9H-Fluoren-9-ylethoxy)carbonyl]-L-leucine] | 74%
37 | CC(C)(C)[C@H](NC(=O)CCC1c2ccccc2-c2ccccc21)C(=O)O [NPC 15685, N-[3-(9H-Fluoren-9-yl)propionyl]-L-tert-leucine, quarter hydrate] | 30%
38 | CC(C)(C)C[C@H](NC(=O)OCC1c2ccccc2-c2ccccc21)C(=O)O [NPC 15676, N-[(9H-Fluoren-9-ylmethoxy)carbonyl]-L--neopentylglycine quarter hydrate] | 50%
39 | CCCC[C@H](NC(=O)OCC1c2ccccc2-c2ccccc21)C(=O)O [NPC 15667, N-[9H-(Fluorenyl-9-ylmethoxy)carbonyl]-L-norleucine] | 71%

Tested on: Ear Edema Caused by Xylene
Assay: Inhibition of Ear Edema Caused by Xylene (II), Table 9
Format: in vivo, CF-1 mice
Settings: i.p., 10 mg/kg; 2 h
Outline: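 CF-1 mice (25-30 g, six per group) received compound i.p. in DMSO or 0.5% methylcellulose 30 min before xylene was applied to both ear surfaces. Ear thickness was measured by micrometer 2 h later. Values are percent inhibition of the increase in ear thickness versus irritant-only controls.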

Row | SMILES | % Inhibition
40 | CC(C)C[C@H](NC(=O)OCCC1c2ccccc2-c2ccccc21)C(=O)O [NPC 15521, N-[(9H-Fluoren-9-ylethoxy)carbonyl]-L-leucine] | 20%
41 | CC(C)(C)[C@H](NC(=O)CCC1c2ccccc2-c2ccccc21)C(=O)O [NPC 15685, N-[3-(9H-Fluoren-9-yl)propionyl]-L-tert-leucine, quarter hydrate] | 5%
42 | CC(C)(C)C[C@H](NC(=O)OCC1c2ccccc2-c2ccccc21)C(=O)O [NPC 15676, N-[(9H-Fluoren-9-ylmethoxy)carbonyl]-L--neopentylglycine quarter hydrate] | 26%
43 | CCCC[C@H](NC(=O)OCC1c2ccccc2-c2ccccc21)C(=O)O [NPC 15667, N-[9H-(Fluorenyl-9-ylmethoxy)carbonyl]-L-norleucine] | 22%

Same assay, conditions: i.p., 30 mg/kg; 2 h

Row | SMILES | % Inhibition
44 | CC(C)C[C@H](NC(=O)OCCC1c2ccccc2-c2ccccc21)C(=O)O [NPC 15521, N-[(9H-Fluoren-9-ylethoxy)carbonyl]-L-leucine] | 15%
45 | CC(C)(C)[C@H](NC(=O)CCC1c2ccccc2-c2ccccc21)C(=O)O [NPC 15685, N-[3-(9H-Fluoren-9-yl)propionyl]-L-tert-leucine, quarter hydrate] | 23%
46 | CC(C)(C)C[C@H](NC(=O)OCC1c2ccccc2-c2ccccc21)C(=O)O [NPC 15676, N-[(9H-Fluoren-9-ylmethoxy)carbonyl]-L--neopentylglycine quarter hydrate] | 12%
47 | CCCC[C@H](NC(=O)OCC1c2ccccc2-c2ccccc21)C(=O)O [NPC 15667, N-[9H-(Fluorenyl-9-ylmethoxy)carbonyl]-L-norleucine] | 57%

Same assay, conditions: i.p., 100 mg/kg; 2 h

Row | SMILES | % Inhibition
48 | CC(C)C[C@H](NC(=O)OCCC1c2ccccc2-c2ccccc21)C(=O)O [NPC 15521, N-[(9H-Fluoren-9-ylethoxy)carbonyl]-L-leucine] | 57%
49 | CC(C)(C)[C@H](NC(=O)CCC1c2ccccc2-c2ccccc21)C(=O)O [NPC 15685, N-[3-(9H-Fluoren-9-yl)propionyl]-L-tert-leucine, quarter hydrate] | 18%
50 | CC(C)(C)C[C@H](NC(=O)OCC1c2ccccc2-c2ccccc21)C(=O)O [NPC 15676, N-[(9H-Fluoren-9-ylmethoxy)carbonyl]-L--neopentylglycine quarter hydrate] | 44%
51 | CCCC[C@H](NC(=O)OCC1c2ccccc2-c2ccccc21)C(=O)O [NPC 15667, N-[9H-(Fluorenyl-9-ylmethoxy)carbonyl]-L-norleucine] | 80%
